Experimental findings from a melting point compilation (Tetko et al.; mined from patent text by program, amines drawn as free bases though some values may be those of a salt) are described below.

Usually melting point stands for the temperature of the solid-liquid transition.

Bounds are passed on as bounds.

Take `CC(C)OC(=O)N1CCC(c2nc3cc(-c4ccc(-n5cnnn5)cc4F)ccc3o2)CC1`: the melting point was in the range of 168 to 171 °C.

As to `COc1ccc(C(C#N)N2C(=O)c3cccc(NC(C)=O)c3C2=O)cc1OC1CCCC1` (stereo unspecified), the melting point fell in the range of 124 to 126 °C.

`Cc1cc(SCc2ccc(-c3ccc(C(F)(F)F)cc3)cc2)ccc1OCC(=O)O` registered a melting point of 140 to 141 °C.

As for `NC(=O)c1ccc2[nH]nnc2c1`, the melting point lay within 178 to 184 °C.

Compound `CC1=CC(OC(=O)c2ccc([N+](=O)[O-])cc2Cl)C(O)C(C)(C)CC1=O` (stereo unspecified) gave a melting point of 108 to 110 °C.

The compound `CC1(C)CCCC(NC(=O)OC(C)(C)C)C(=O)N1` (stereo unspecified) showed a melting point of 118 to 120 °C.

`Cc1c(-c2cc(F)cc(C(F)(F)F)c2)ccc(N)c1C#N` yielded a melting point of 96 to 97 °C.

In turn, `CCCCNC(=O)NS(=O)(=O)c1c(C(=O)OCC)cnn1C` had a melting point of 117 to 119 °C.

`O=S1(=O)NCN(CCF)c2cc(F)c(F)cc21` came in with a melting point of 128 to 130 °C.

Regarding `CC(C)c1cc(-c2ccc(F)c3ccccc23)nc(NCCNS(C)(=O)=O)n1`, the melting point lay within 85 to 91 °C.

Compound `COc1cccc(OC)c1-c1ccc(C[C@H](NC(=O)c2c(Cl)cc(-c3cscn3)cc2Cl)C(=O)O)cc1` had a melting point of 186 °C.

In the case of `O=C(O)C(Cc1cnc2cc(OCc3ccc(Cl)cc3)ccc2c1)Sc1ccccc1` (stereo unspecified), the melting point was 157 to 158 °C.

Take `COc1cc2oc(=O)c(CCO)c(C)c2cc1O`: the melting point lay in the range of 229 to 235 °C.

Turning to `COc1ccc(CN(C)CCc2ccc(NC(=O)c3cccc4c(=O)c5cccc(C)c5[nH]c34)cc2)cc1OC`, the melting point was 119 °C.

As to `O=C1Nc2ccccc2C(=O)N2CC[C@@H]12`, the melting point fell in the range of 217 to 218 °C.

For the compound `CC(CCl)CCCC(C)C1CCC2C3=CC=C4C(C)(C)C(O[Si](C)(C)C(C)(C)C)CCC4(C)C3CCC21C` (stereo unspecified), the melting point is 114 to 116 °C.

In the case of `O=C1CCCN1C(=O)Oc1ccc(Cl)cc1`, the melting point was 99 to 100 °C.

Consider `COC(=O)c1sc2cc(OCc3cccnc3)ccc2c1Cl`, for which the melting point was 148 to 150 °C.

`CN(C)CCc1ccc(O)c2c1=NS(=O)(=O)N=2` displayed a melting point of 202 to 205 °C.

`CC(=O)NCCc1ccc(C(=O)c2cccc(F)c2)cc1` returned a melting point of 78 °C.

`Cc1c(O[Si](C)(C)C(C)(C)C)cc(O[Si](C)(C)C(C)(C)C)cc1C(=O)O[Si](C)(C)C(C)(C)C`: the melting point is 64 °C.

`CCC(=O)N1CCC(NC(=O)Nc2ccccc2)CC1` had a melting point of 169 to 171 °C.

`CC(=O)N1CCN(c2cccc(O)c2)CC1` showed a melting point of 186 °C.

For the compound `CCOC(=O)c1nc(-c2cc(Cl)c(OC)c(OC)c2)cs1`, the melting point is 92 to 94 °C.

As to `COc1ccc2ccc(O)c([N+](=O)[O-])c2c1`, the melting point was 130 to 131 °C.

`CCCn1ncnc1COc1nn2c(-c3ccc(F)cc3)nncc2c1C(C)(C)C` had a melting point of 154 °C.

For `Cn1nc(-c2ccc([N+](=O)[O-])o2)c2c(Cl)ncnc21`, the melting point came out at 195 °C.

In the case of `COc1cc2c(cc1-c1cccnc1)-c1c(-c3cncs3)c3c(n1CC2)C(=O)N(C(C)(C)C)CCCOC3`, the melting point fell in the range of 200 to 201 °C.

`BrCc1cc(-c2ccccc2)no1`: the melting point was determined as 87 °C.

Compound `Cc1c(NC(=O)CC(C)(C)C)cc2c(c1C)OC(C)(C)C2Nc1ccccc1` (stereo unspecified) came in with a melting point of 151 to 152 °C.

Consider `CCNC(=O)c1ccc(-n2nnc(C(=O)NC3CC3)c2COCc2ccccc2)c(O)c1`, for which the melting point was found to be 146 °C.

`COC(=O)c1ccc(Cc2cn(C)c3ccc(C=O)cc23)c(OC)c1` gave a melting point of 116 to 118 °C.

Turning to `C[Si]1(C)CCCCCC[Si](C)(C)O[Si](C)(C)CCCCCC[Si](C)(C)O1`, the melting point was in the range of 48 to 50 °C.

Turning to `O=C1NC(c2ccccc2)=C2C(=O)OC(c3ccc(Br)cc3)=C12`, the melting point is 295 °C.

With `COCCO[C@@H]1c2ccn3c(C)c(C)nc3c2N[C@H](c2ccccc2)[C@H]1OC(=O)OC`, the melting point lay within 176 to 177 °C.

The compound `CCCC(=O)Nc1n[nH]c2cc(-c3ccncc3)ccc12` gave a melting point of 200 °C.

On to `COC(=O)c1ccc(C(C)=O)o1`, for which the melting point lay within 101 to 102 °C.

Take `CCCCc1nc2cc(Cl)cc(C(=O)O)c2n1Cc1ccc(-c2ccccc2-c2nnn[nH]2)cc1`: the melting point fell in the range of 232 to 234 °C.

For `O=C(N1c2ccccc2C(Br)C(Br)c2ccccc21)C(F)(F)F` (stereo unspecified), the melting point was in the range of 186 to 189 °C.

Compound `CCCCCCCCCCCCCCNCc1ccc(OCc2cccc(F)c2)cc1` displayed a melting point of 58 °C.

`COCCCN1C[C@H](O)c2cc(S(N)(=O)=O)sc2S1(=O)=O` came in with a melting point of 109 to 111 °C.

For `CCOC(=O)c1nc(NC)sc1C(=O)CC`, the melting point was in the range of 84 to 86 °C.

As to `COn1cc(C(=O)O)c(=O)c2c3sc(=O)n(C)c3ccc21`, the melting point was over 300 °C.

As for `C#CCn1cnc2c(N)nc3ccccc3c21`, the melting point was 220 to 222 °C.

The compound `CCC(CC)c1nc(-c2ccncc2)c(-c2ccc(Cl)cc2)n1CC` had a melting point of 239 to 242 °C.

In turn, `CC(C)(O)C[C@@H]1CO[C@](C)([C@H]2CC[C@H]3[C@@H](O)CCC[C@@]32C)C1` came in with a melting point of 67 °C.

As for `c1ccc2nn(-c3cscn3)cc2c1`, the melting point fell in the range of 146 to 147 °C.

Take `CC(Cl)=CCC1CCC2C(C=CC3=CCCc4c3n2c2ccncc42)C1` (stereo unspecified): the melting point was 130 to 132 °C.

As for `CN(C)C1(Cc2ccccc2)CCC(c2[nH]c3ccccc3c2CC2CCCCC2)CC1` (stereo unspecified), the melting point lay in the range of 120 to 126 °C.

In the case of `CCCOc1ccccc1-c1nc2nc(NCC(C)OC)ncc2c(=O)[nH]1` (stereo unspecified), the melting point was 193 to 194 °C.

In the case of `CC1=CC(O)C(OC(=O)c2ccccc2)C(C)(C)CC1=O` (stereo unspecified), the melting point lay in the range of 99 to 100 °C.

Regarding `COC(=O)CCC(=O)c1ccc2c(c1)CC(CNC(C)=O)C2` (stereo unspecified), the melting point lay within 139 to 140 °C.

Compound `O=C1CCc2c1cccc2[N+](=O)[O-]` registered a melting point of 94 to 97 °C.

The compound `CCNc1ccc2c(c1)Cc1c-2[nH]c2ccccc12` gave a melting point of 225 °C.

`CCCCc1c(Cl)cccc1NC(=O)C(C)(C)C` had a melting point of 88 to 89 °C.

As for `COc1ccccc1Cc1ccc(Cl)nn1`, the melting point was 63 °C.

Compound `Cc1ccc(S(=O)(=O)OCC2Cc3c(Br)cccc3O2)cc1` (stereo unspecified) displayed a melting point of 90 to 91 °C.

The compound `COc1cccc(Cc2nc3c(N)ncnc3[nH]2)c1` returned a melting point of 163 to 165 °C.

Turning to `COc1ccc(C(=O)Nc2ccccc2)cc1NS(=O)(=O)Cc1ccccc1`, the melting point came out at 216 °C.

As to `CCN(CC(=O)O)c1ccc(C=O)cc1[N+](=O)[O-]`, the melting point was 90 °C.

The compound `CC(=O)CC(=O)NCC#N` gave a melting point of 63 to 65 °C.

`CNS(=O)(=O)c1c(C)cc(OC)cc1C`: the melting point stood at 131 °C.

In turn, `c1cc2nnnn2cc1C1CO1` (stereo unspecified) yielded a melting point of 108 to 110 °C.

Take `Nc1cccc(-c2ccc(C3=CCCN(Cc4ccccc4)C3)cc2)n1`: the melting point was 270 to 272 °C.

With `COc1c(C)c(C)c(OC)c(Cn2ccnc2)c1C`, the melting point lay within 82 to 83 °C.

The compound `N#CC1CCCCC1n1nc(-c2c(-c3ccccc3)nn3ccccc23)ccc1=O` (stereo unspecified) displayed a melting point of 214 °C.

Consider `C=CC(O)c1ccc2[nH]c(CCCC)nc(=O)c2c1` (stereo unspecified), for which the melting point came to 141 °C.

For the compound `O=S(Cc1ccccn1)c1nc2cc3c(cc2[nH]1)CCC3` (stereo unspecified), the melting point fell in the range of 173 to 174 °C.

As for `c1ccc(C2CN(CCc3ccccn3)Cc3c2[nH]c2ccccc32)cc1` (stereo unspecified), the melting point is 190 to 192 °C.

Consider `O=C(Nc1ccc(C2(O)CCN(C(=O)OCc3ccccc3)CC2)cc1)OCc1ccccc1`, for which the melting point fell in the range of 156 to 158 °C.

With `Cc1nc[nH]c1CSCCNc1cc[nH]c(=O)n1`, the melting point is 249 to 251 °C.

`CC(C)(C)C(=O)C=Cc1ccc2c(c1)OCO2` had a melting point of 94 to 96 °C.

`Fc1ccc(-c2nc(=S)c3c(o2)CCCC3)cc1` returned a melting point of 148 to 149 °C.

Regarding `COc1ccc(N2C3CCC(C(=O)C3)C2c2ccc(Cl)cc2)cc1OC` (stereo unspecified), the melting point is 42 to 43 °C.

`COc1ccc2cc([C@H](C)C(=O)OCC(=O)N(C)CC(=O)NCCO[N+](=O)[O-])ccc2c1`: the melting point was in the range of 79 to 81 °C.

`NC(=O)c1ccc(-c2ccc3nnn(Cc4ccc5ncccc5c4)c3n2)cc1C(F)(F)F`: the melting point lay within 230 to 232 °C.

Compound `Cc1cc(C)c(Nc2nc(C)ccc2S(=O)(=O)c2ccc(OCc3cccc(F)c3F)cc2)c(C)c1` yielded a melting point of 136 to 138 °C.

`Cc1[nH]c(=O)c(C#N)c2c1CC(c1cccnc1)CC2` (stereo unspecified) registered a melting point of over 300 °C.

In the case of `N#CCCNC(=O)c1cccc(-c2cccc3nc(C(O)c4cccc(C(F)(F)F)c4)cn23)c1` (stereo unspecified), the melting point was in the range of 223 to 224 °C.

Regarding `CC(=O)N1CCN(CCCOc2ccc(N3CCN(c4ccc5nnc(C(F)(F)F)n5n4)CC3)cc2)CC1`, the melting point was found to be 162 °C.

`O=C(O)c1c([N+](=O)[O-])ccc2c1OCO2` displayed a melting point of 166 to 173 °C.

As to `CCC(C)(C)c1ccc(OCCCCc2c(O)cc3ccccc3c2C(N)=O)c(C(C)(C)CC)c1`, the melting point lay in the range of 118 to 124 °C.

`O=C(N[C@H]1CCN(C(=O)c2cc(C(F)(F)F)cc(C(F)(F)F)c2)[C@H](Cc2ccccc2)C1)c1ccnc2ccccc12` yielded a melting point of 187 °C.

`NC(=O)c1nc(-c2cccc(N)c2)cs1` displayed a melting point of 193 to 194 °C.

The compound `Cc1ccc(C(=O)c2ccc(C)cc2F)c(F)c1` displayed a melting point of 84 to 85.5 °C.

On to `Cc1cc(Nc2ccnc(Nc3ccc(S(=O)(=O)N(C)C4CCN(Cc5cncs5)CC4)cc3)n2)ccc1F`, for which the melting point lay in the range of 196 to 197 °C.

The compound `CC(=S)NC[C@H]1CN(c2ccc(-c3nc(Cn4cccn4)cs3)c(F)c2)C(=O)O1` yielded a melting point of 166 to 168 °C.

Compound `CC(=O)N(C)CC(c1ccc(Cl)cc1)c1ccc(Cl)cc1` came in with a melting point of 103 to 104 °C.

Consider `CCCOc1ccc(/C=C/C(=O)OC(C)(C)C)cc1-c1nc2c(CCC)nn(C)c2c(=O)[nH]1`, for which the melting point lay in the range of 167 to 168 °C.

`Nc1ncc(C#Cc2ccc(Cl)cc2)c(NCCO)n1`: the melting point is 197 to 200 °C.

Turning to `Cc1cc(C)cc(OCCCC(=O)O)c1`, the melting point lay within 66 to 68.5 °C.
